In patent US12116343B2, “Inhibitors of APOL1 and methods of using same” (Vertex Pharmaceuticals Incorporated, priority 2020, dated 2024):
pIC50: −log10 of the molar value.

molecular target: T1, G1 APOL1 (Homo sapiens, UniProt O14791, I384M/S342G); experiment: Acute APOL1 Thallium Assay with inducible stable clones of HEK 293 cells; type: cell-based; settings: HEK 293 T-Rex cells expressing G1 APOL1; read-out: Thallium Assay (IC50)
T1 construct: expressed in transfected cells
T1 sequence (O14791 28-398 S342G/I384M): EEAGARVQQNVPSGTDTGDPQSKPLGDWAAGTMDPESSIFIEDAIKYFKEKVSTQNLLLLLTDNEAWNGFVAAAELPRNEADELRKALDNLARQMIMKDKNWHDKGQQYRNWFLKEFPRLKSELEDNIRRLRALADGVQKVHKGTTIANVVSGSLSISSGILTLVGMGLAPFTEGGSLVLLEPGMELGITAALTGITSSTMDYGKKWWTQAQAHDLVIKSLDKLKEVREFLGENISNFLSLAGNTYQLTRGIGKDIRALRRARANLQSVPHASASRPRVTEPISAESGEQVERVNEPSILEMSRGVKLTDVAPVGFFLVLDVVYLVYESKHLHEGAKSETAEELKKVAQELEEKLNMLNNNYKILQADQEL
Outline: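 Readout: Tl+-triggered fluorescence, FLIPR, reflecting potassium flux through APOL1 pores after cells take up an AM-ester thallium indicator. Cells: HEK T-Rex stable clone G1 DC3.25, APOL1 G1 induced by tetracycline, seeded 26000 per well.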

| pIC50 | Structure (SMILES) |
| --- | --- |
| > 6.60 | O=C(N[C@@H](CO)C(F)F)[C@H]1C[C@H](c2c(-c3ccc(F)cc3)[nH]c3c(F)cc(F)cc32)C1 [Compound 230] |
| 6.00 to 6.60 | O=C(NCCO)[C@H]1C[C@@H](c2c(-c3ccc(F)cc3)[nH]c3c(F)cc(F)cc32)C1 [Compound 237] |
| < 6.00 | C[C@@H](O)CNC(=O)[C@H]1C[C@@H](c2c(-c3ccc(F)cc3)[nH]c3c(F)cc(F)cc32)C1 [Compound 258] |
| < 6.00 | O=C(N[C@@H]1CCOC1)[C@H]1C[C@@H](c2c(-c3ccc(F)cc3)[nH]c3c(F)cc(F)cc32)C1 [Compound 269] |
| 6.00 to 6.60 | O=C(NCC(F)F)[C@H]1C[C@@H](c2c(-c3ccc(F)cc3)[nH]c3c(F)cc(F)cc32)C1 [Compound 238] |
| < 6.00 | O=C(N[C@H]1CCOC1)[C@H]1C[C@@H](c2c(-c3ccc(F)cc3)[nH]c3c(F)cc(F)cc32)C1 [Compound 246] |
| < 6.00 | O=C1CCC(NC(=O)[C@H]2C[C@@H](c3c(-c4ccc(F)cc4)[nH]c4c(F)cc(F)cc43)C2)C(=O)N1 (some centres unmarked) [Compound 252] |

same assay, conditions: Table 24, Compounds 287 to 465; read-out: Thallium Assay (IC50)

| pIC50 | Structure (SMILES) |
| --- | --- |
| < 6.00 | CC1CC(NC(=O)NC[C@H]2C[C@H](c3c(-c4ccc(F)cc4)[nH]c4c(F)cc(F)cc43)C2)C(=O)O1 (some centres unmarked) [Compound 395] |
| < 6.00 | C[C@H](O)CNC(=O)C1CC(Cc2c(-c3ccc(F)cc3)[nH]c3c(F)cc(F)cc23)C1 (some centres unmarked) [Compound 300] |
| > 6.60 | O=C(NC(CO)(CO)CO)O[C@H]1C[C@H](c2c(-c3ccc(F)cc3)[nH]c3c(F)cc(F)cc32)C1 [Compound 349, (1r, 3r)-3-(5,7-difluoro-2-(4-fluorophenyl)-1H-indol-3-yl)cyclobutyl (1,3-dihydroxy-2-(hydroxymethyl)propan-2-yl)carbamate] |
| 6.00 to 6.60 | O=C(NC1CC1)O[C@H]1C[C@H](c2c(-c3ccc(F)cc3)[nH]c3c(F)cc(F)cc32)C1 [Compound 358] |
| < 6.00 | CC(C)(O)CCNC(=O)C1CC(Cc2c(-c3ccc(F)cc3)[nH]c3c(F)cc(F)cc23)C1 (centres unmarked) [Compound 327] |
| < 6.00 | O=C(CN[C@H]1C[C@H](c2c(-c3ccc(F)cc3)[nH]c3c(F)cc(F)cc32)C1)NC1CC1 [Compound 293] |
| < 6.00 | C[C@@H](O)CNC(=O)N(C)CC1CC(c2c(-c3ccc(F)cc3)[nH]c3c(F)cc(F)cc23)C1 (some centres unmarked) [Compound 429] |
| < 6.00 | O=C(NCC1(CO)CC1)C1CC(Cc2c(-c3ccc(F)cc3)[nH]c3c(F)cc(F)cc23)C1 (centres unmarked) [Compound 323] |
| < 6.00 | CC1(C)CC(NC(=O)NC[C@H]2C[C@H](c3c(-c4ccc(F)cc4)[nH]c4c(F)cc(F)cc43)C2)C(=O)O1 (some centres unmarked) [Compound 403] |
| < 6.00 | CN(CC1CC(c2c(-c3ccc(F)cc3)[nH]c3c(F)cc(F)cc23)C1)C(=O)N1CCC1 (centres unmarked) [Compound 432] |
| < 6.00 | C[C@H](O)CNC(=O)O[C@H]1C[C@H](c2c(-c3ccc(F)cc3)[nH]c3c(F)cc(F)cc32)C1 [Compound 365] |
| < 6.00 | O=C(N[C@H](CO)C(F)(F)F)O[C@H]1C[C@H](c2c(-c3ccc(F)cc3)[nH]c3c(F)cc(F)cc32)C1 [Compound 362] |
| 6.00 to 6.60 | O=C(N[C@@H]1CCNC1=O)O[C@H]1C[C@H](c2c(-c3ccc(F)cc3)[nH]c3c(F)cc(F)cc32)C1 [Compound 359] |
| < 6.00 | O=C(NC(CO)CO)N[C@H]1C[C@H](c2c(-c3ccc(F)cc3)[nH]c3c(F)cc(F)cc32)C1 [Compound 298] |
| < 6.00 | COC1(CNC(=O)C2CC(Cc3c(-c4ccc(F)cc4)[nH]c4c(F)cc(F)cc34)C2)CCOC1 (centres unmarked) [Compound 343] |
| < 6.00 | CC1(CNC(=O)C2CC(Cc3c(-c4ccc(F)cc4)[nH]c4c(F)cc(F)cc34)C2)CCOC1 (mixture of isomers) [Compound 332] |
| < 6.00 | O=C(NCc1ccc[nH]c1=O)C1CC(Cc2c(-c3ccc(F)cc3)[nH]c3c(F)cc(F)cc23)C1 (centres unmarked) [Compound 313] |
| < 6.00 | CN1CCN(C(=O)CNCC2CC(c3c(-c4ccc(F)cc4)[nH]c4c(F)cc(F)cc34)C2)CC1 (centres unmarked) [Compound 444] |
| < 6.00 | O=C(NC1CC(O)C1)O[C@H]1C[C@H](c2c(-c3ccc(F)cc3)[nH]c3c(F)cc(F)cc32)C1 (some centres unmarked) [Compound 383] |
